From the CombiSolv-Exp solvation set (Vermeire and Green 2021)
Values belong to the molecule of their own block, whether it stands above or below them.

Assay: solvent given as SMILES

solvation free energy, 298 K (in O): -5.8 kcal/mol
SMILES: COc1cc(C)ccc1O

solvation free energy, 298 K (in O): -4.1 kcal/mol
SMILES: COC(=O)C1CC1

solvation free energy, 298 K (in O): -4.3 kcal/mol
SMILES: CCCCCC(=O)CC(C)=O

solvation free energy, 298 K (in O): -0.37 kcal/mol
SMILES: CC1=CCC(=C(C)C)CCC(C)=CCC1

solvation free energy, 298 K (in CCCC): -1.23 kcal/mol | solvation free energy, 298 K (in CCCCCC): -1.19 kcal/mol | solvation free energy, 298 K (in CCCCCCCC): -1.11 kcal/mol | solvation free energy, 298 K (in CCCCCCCCCC): -1.09 kcal/mol
SMILES: Br

solvation free energy, 298 K (in O): -0.52 kcal/mol
SMILES: CC1=CC2C(CCC(C)=CCC1)C2(C)C (stereo not given)

solvation free energy, 298 K (in NC=O): -5.09 kcal/mol | solvation free energy, 298 K (in O): -2.84 kcal/mol
SMILES: CC(=O)CCCCC(C)C

solvation free energy, 298 K (in O): -3.87 kcal/mol
SMILES: C=C(C)C1CC=C(C)C(OC(=O)CC)C1 (stereo not given)

solvation free energy, 298 K (in CCCCCCCCC): -0.37 kcal/mol | solvation free energy, 298 K (in CCCCCCCCO): -0.57 kcal/mol | solvation free energy, 298 K (in CN1CCCC1=O): -1.69 kcal/mol | solvation free energy, 298 K (in CN(C)C=O): -1.69 kcal/mol | solvation free energy, 298 K (in O): -0.33 kcal/mol
SMILES: FCF

solvation free energy, 298 K (in O): 1.13 kcal/mol
SMILES: CC1CCC2(C(C)C)CC12 (stereo not given)

solvation free energy, 298 K (in O): -2.87 kcal/mol
SMILES: c1ccc(Oc2ccccc2)cc1

solvation free energy, 298 K (in C=CCCCCCCCCCCCCCC): -4.01 kcal/mol
SMILES: CCCC(C)CC (stereo not given)

solvation free energy, 298 K (in O): -0.99 kcal/mol
SMILES: C1=CC=CCC=C1

More lines, now with the values behind:

SMILES: O=C(O)Cc1ccccc1Nc1c(Cl)cccc1Cl
solvation free energy, 298 K (in C1COCCO1): -19.7 kcal/mol | solvation free energy, 298 K (in CCCCCO): -18.4 kcal/mol | solvation free energy, 298 K (in CCO): -18.5 kcal/mol | solvation free energy, 298 K (in CN(C)C=O): -20 kcal/mol | solvation free energy, 298 K (in CO): -18.5 kcal/mol | solvation free energy, 298 K (in Clc1ccccc1): -17.7 kcal/mol | solvation free energy, 298 K (in NC=O): -17.8 kcal/mol

SMILES: C1CC1
solvation free energy, 298 K (in C1COCCO1): -1.94 kcal/mol | solvation free energy, 298 K (in CC(C)O): -1.58 kcal/mol | solvation free energy, 298 K (in CCCCCC): -1.98 kcal/mol | solvation free energy, 298 K (in CCCCO): -1.72 kcal/mol | solvation free energy, 298 K (in CCCO): -1.57 kcal/mol | solvation free energy, 298 K (in O): 0.75 kcal/mol

SMILES: CC(=O)OCCOC(C)=O
solvation free energy, 298 K (in O): -6.34 kcal/mol

SMILES: Clc1cc(Cl)c(-c2c(Cl)cc(Cl)cc2Cl)c(Cl)c1
solvation free energy, 298 K (in CCCCCCCCO): -12.5 kcal/mol | solvation free energy, 298 K (in O): -1.96 kcal/mol

SMILES: CCCCC#N
solvation free energy, 298 K (in CCCCCC): -4.45 kcal/mol | solvation free energy, 298 K (in CCCCCCCCCCCCCCCC): -4.01 kcal/mol | solvation free energy, 298 K (in CCCCCCCCO): -4.89 kcal/mol | solvation free energy, 298 K (in O): -3.49 kcal/mol | solvation free energy, 298 K (in [2H]O[2H]): -3.42 kcal/mol

SMILES: C=C(C)c1ccccc1
solvation free energy, 298 K (in CC(C)=O): -6.37 kcal/mol | solvation free energy, 298 K (in O): -1.28 kcal/mol

SMILES: Cc1ccncc1C
solvation free energy, 298 K (in O): -5.22 kcal/mol

SMILES: C=C(C)C(=O)OC
solvation free energy, 298 K (in O): -2.53 kcal/mol

SMILES: CCOC(C)=O
solvation free energy, 298 K (in Brc1cccc2ccccc12): -3.95 kcal/mol | solvation free energy, 298 K (in C1CCOC1): -4.56 kcal/mol | solvation free energy, 298 K (in C1COCCO1): -4.49 kcal/mol | solvation free energy, 298 K (in C=CCCCCCCCCCCCCCC): -3.23 kcal/mol | solvation free energy, 298 K (in CC(=O)N(C)C): -4.23 kcal/mol | solvation free energy, 298 K (in CC(=O)OCc1ccccc1): -4.29 kcal/mol | solvation free energy, 298 K (in CC(C)CC(C)(C)C): -3.53 kcal/mol | solvation free energy, 298 K (in CC(C)CCCC(C)CCCC(C)CCCCC(C)CCCC(C)CCCC(C)C): -3.2 kcal/mol | solvation free energy, 298 K (in CC(C)O): -3.9 kcal/mol | solvation free energy, 298 K (in CCC(C)=O): -4.49 kcal/mol | solvation free energy, 298 K (in CCCC=O): -4.49 kcal/mol | solvation free energy, 298 K (in CCCCC(CC)COC(=O)CCCCC(=O)OCC(CC)CCCC): -3.73 kcal/mol | solvation free energy, 298 K (in CCCCCC): -3.61 kcal/mol | solvation free energy, 298 K (in CCCCCC=CCC=CCCCCCCCC(=O)O): -3.67 kcal/mol | solvation free energy, 298 K (in CCCCCCC): -3.53 kcal/mol | solvation free energy, 298 K (in CCCCCCCC): -3.4 kcal/mol | solvation free energy, 298 K (in CCCCCCCCC=CCCCCCCCC(=O)OCC(COC(=O)CCCCCCCC=CCCCCCCCC)OC(=O)CCCCCCCC=CCCCCCCCC): -3.72 kcal/mol | solvation free energy, 298 K (in CCCCCCCCCC): -3.28 kcal/mol | solvation free energy, 298 K (in CCCCCCCCCCCCCC): -3.24 kcal/mol | solvation free energy, 298 K (in CCCCCCCCCCCCCCCC): -3.23 kcal/mol | solvation free energy, 298 K (in CCCCCCCCO): -3.69 kcal/mol | solvation free energy, 298 K (in CCCCCO): -3.87 kcal/mol | solvation free energy, 298 K (in CCCCCl): -4.32 kcal/mol | solvation free energy, 298 K (in CCCCN(C=O)CCCC): -3.96 kcal/mol | solvation free energy, 298 K (in CCCCO): -3.97 kcal/mol | solvation free energy, 298 K (in CCO): -4.06 kcal/mol | solvation free energy, 298 K (in CCOC(=O)c1ccccc1C(=O)OCC): -3.94 kcal/mol | solvation free energy, 298 K (in CCOCCO): -4.14 kcal/mol | solvation free energy, 298 K (in CCOP(=O)(OCC)OCC): -4.13 kcal/mol | solvation free energy, 298 K (in CN1CCCC1=O): -4.16 kcal/mol | solvation free energy, 298 K (in CN1CCCCC1=O): -4.16 kcal/mol | solvation free energy, 298 K (in CN1CCN(C)C1=O): -3.98 kcal/mol | solvation free energy, 298 K (in CN(C)C=O): -4.32 kcal/mol | solvation free energy, 298 K (in CNC(C)=O): -4.04 kcal/mol | solvation free energy, 298 K (in CO): -4.38 kcal/mol | solvation free energy, 298 K (in COP(=O)(OC)OC): -4.28 kcal/mol | solvation free energy, 298 K (in CS(C)=O): -3.88 kcal/mol | solvation free energy, 298 K (in Cc1ccc(C)cc1): -4.21 kcal/mol | solvation free energy, 298 K (in Cc1cccc(C)c1): -4.15 kcal/mol | solvation free energy, 298 K (in ClCCCl): -4.71 kcal/mol | solvation free energy, 298 K (in ClCCl): -5.22 kcal/mol | solvation free energy, 298 K (in Clc1ccccc1): -4.43 kcal/mol | solvation free energy, 298 K (in NC=O): -3.61 kcal/mol | solvation free energy, 298 K (in O): -2.95 kcal/mol | solvation free energy, 298 K (in O=C1CCCCC1): -4.33 kcal/mol | solvation free energy, 298 K (in O=CN1CCOCC1): -3.89 kcal/mol | solvation free energy, 298 K (in OCCOCCO): -3.53 kcal/mol | solvation free energy, 298 K (in [2H]O[2H]): -3.02 kcal/mol | solvation free energy, 298 K (in c1ccc2ncccc2c1): -4.07 kcal/mol

SMILES: COc1ccccc1OC
solvation free energy, 298 K (in O): -5.33 kcal/mol

SMILES: C=C(C)C1=CC=C(C)CC1
solvation free energy, 298 K (in O): -1.35 kcal/mol

SMILES: O=C(O)c1cccc2ccccc12
solvation free energy, 298 K (in C=CCCCCCCC=C): -9.51 kcal/mol | solvation free energy, 298 K (in C=CCCCCCCCCCCCCCC): -9.45 kcal/mol | solvation free energy, 298 K (in O): -9.04 kcal/mol

SMILES: C=CC1(C)CCC(C(C)C)=CC1C(=C)C (stereo not given)
solvation free energy, 298 K (in O): -0.42 kcal/mol

SMILES: CCNc1nc(NC(C)(C)C)nc(OC)n1
solvation free energy, 298 K (in O): -9 kcal/mol

SMILES: CC(=O)C(C)C
solvation free energy, 298 K (in CCCCCCCCCCCCCCCC): -3.52 kcal/mol | solvation free energy, 298 K (in CCCCCCCCO): -4.15 kcal/mol | solvation free energy, 298 K (in O): -3.24 kcal/mol | solvation free energy, 298 K (in [2H]O[2H]): -3.22 kcal/mol

SMILES: COC(=O)c1ccc(Br)cc1
solvation free energy, 298 K (in CN(C)C=O): -9.25 kcal/mol | solvation free energy, 298 K (in O): -4.26 kcal/mol

SMILES: CC(C)OC=O
solvation free energy, 298 K (in O): -2.02 kcal/mol

SMILES: C=CC(C)=CCCC(=C)C
solvation free energy, 298 K (in O): -0.55 kcal/mol
